Results reported in US20210353579A1, “HIGH PENETRATION COMPOSITIONS AND USES THEREOF” (Techfields Pharma Co., Ltd., priority 2006, published 2021).
In brackets after ≈: the same amount, converted by molar mass. Read-outs that look alike come from different tables or passages of the source.

Key:
[1] = Plasma levels after transdermal administration to hairless mice; assay type: in vivo; conditions: for t, time to peak plasma level after parent compound: parent compound administered (time when taken orally); for Peak plasma concentration after parent compound: parent compound administered, hairless mice; for Peak plasma concentration of parent compound after prodrug compound / t, time to peak plasma level of parent compound after prodrug compound: mouse, in vivo
Protocol: Tested compounds (20% solution or suspension in 1 mL isopropanol) are administered transdermally to the skin of intact hairless mice. The plasma levels of the parent compounds are determined by HPLC.

human skin tissue = conditions: pH 7.4; for In vitro penetration rate (apparent flux), parent compounds: human, 20 %
in vivo = conditions: rat
Protocol: The acute toxicity of the prodrug compounds and parent compounds are measured by LD50 of rat.

[2] = Solubility in water / aqueous solubility of HPPs and parent drugs; conditions: for solubility: water
mice = assay: Analgesic activity, acetic acid writhing; assay type: in vivo; conditions: 30 min before acetic acid
Protocol: The prodrug compounds are administered either transdermally or orally. The parent compounds are administered orally. The number of writhing that occurred when mice are administered the acetic acid solution are counted, and the rate of inhibition based on the control group which was not pretreated with any test compounds is calculated. […] The A group is the control group.

rats = assay: Antipyretic activity, E. coli suspension as pyrogen; assay type: in vivo; conditions: in °C (unit assumed)
Protocol: Rats are administered with sterilized E. coli suspension as a pyrogen. Each group of rats are administered with a prodrug compounds or parent compounds at a dosage specified below. The prodrug compounds are administered either orally or transdermally. The parent compounds are administered orally.
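Throughout, for LD50 of HPP: acute toxicity in rats expressed as LD50, determined for both prodrugs and their parent compounds.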
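Throughout, for LD50: acute toxicity in rats expressed as LD50, determined for both prodrugs and their parent compounds.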

Row | SMILES | t, time to peak plasma level after parent compound [1] [h] | Peak plasma concentration after parent compound [1] [mg/L] | In vitro penetration rate (apparent flux), parent compounds (human skin tissue) [μg/cm^2/h] | LD50 (in vivo) [mg/kg] | solubility [2] [µg/mL] | Peak plasma concentration of parent compound after prodrug compound [1] [mg/L] | t, time to peak plasma level of parent compound after prodrug compound [1] [min] | % (rate of writhing inhibition) (mice; 100 mg/kg transdermally) [%] | No. of Writhing (mice; 100 mg/kg transdermally) | body temperature, t = 0 min (rats; 100 mg/kg transdermally) | body temperature, t = 90 min (rats; 100 mg/kg transdermally) | body temperature, t = 180 min (rats; 100 mg/kg transdermally) | body temperature, t = 270 min (rats; 100 mg/kg transdermally) | In vitro penetration rate (apparent flux), prodrug compounds (human skin tissue) [μg/cm^2/h] | LD50 of HPP (rat; rats) [mg/kg] | other results
1 | COc1ccc2c(c1)c(CC(=O)OCC(=O)O)c(C)n2C(=O)c1ccc(Cl)cc1 [Acemetacin, acemetacin] | 1 to 2 | 0.1 | 10 | 24 | 100 (≈ 240 µM) | – | – | – | – | – | – | – | – | – | – | –
2 | C=C(C)CNc1ccc(C(C)C(=O)O)cc1 (centres unmarked) [Alminoprofen, alminoprofen] | 2 to 4 | 10 | 30 | 2400 | 100 (≈ 456 µM) | – | – | – | – | – | – | – | – | – | – | –
3 | Nc1c(CC(=O)O)cccc1C(=O)c1ccccc1 [Amfenac, amfenac] | 1 to 2 | 0.1 | 10 | 310 | 200 (≈ 783 µM) | – | – | – | – | – | – | – | – | – | – | –
4 | CC(C(=O)O)c1ccc2oc(-c3ccc(Cl)cc3)nc2c1 (centres unmarked) [Benoxaprofen, benoxaprofen] | 2 to 4 | 10 | 40 | 800 | 100 (≈ 331 µM) | – | – | – | – | – | – | – | – | – | – | –
5 | CC(C(=O)O)c1ccc2c(c1)[nH]c1ccc(Cl)cc12 (centres unmarked) [Carprofen, carprofen] | 2 to 4 | 10 | 40 | 400 | 100 (≈ 365 µM) | – | – | – | – | – | – | – | – | – | – | –
6 | O=C(O)C1CCc2cc(C3CCCCC3)c(Cl)cc21 (centres unmarked) [Clidanac, clidanac] | 2 to 4 | 10 | 40 | 35 | 100 (≈ 359 µM) | – | – | – | – | – | – | – | – | – | – | –
7 | O=C(O)Cc1sc(-c2ccccc2)nc1-c1ccc(Cl)cc1 [Fentiazac, fentiazac, reference compound] | 1 to 2 | 0.1 | 10 | 700 | – | – | – | – | – | – | – | – | – | – | – | –
8 | CC(C)Cc1ccc(C(C)C(=O)O)cc1 (centres unmarked) [Ibuprofen, 2-(ρ-isobutylphenyl) propionic acid, reference compound] | 1 to 2 | 2 | 50 | 1500 | – | – | – | – | – | – | – | – | – | – | – | No. of Writhing (mice; 50 mg/kg orally): 17.2; No. of Writhing (mice; 100 mg/kg orally): 13.1; inhibition at 50 mg/kg (mice; Mus musculus, po, 50 mg/kg orally, read-out: % (rate of writhing inhibition)): 50%; inhibition at 100 mg/kg (mice; Mus musculus, po, 100 mg/kg orally, read-out: % (rate of writhing inhibition)): 62%; body temperature, t = 0 min (rats; 100 mg/kg orally): 37.25 ± 0.06; body temperature, t = 90 min (rats; 100 mg/kg orally): 36.83 ± 0.05; body temperature, t = 180 min (rats; 100 mg/kg orally): 36.80 ± 0.08; body temperature, t = 270 min (rats; 100 mg/kg orally): 36.78 ± 0.07; body temperature, t = 0 min (rats; 150 mg/kg orally): 37.35 ± 0.09; body temperature, t = 90 min (rats; 150 mg/kg orally): 36.59 ± 0.07; body temperature, t = 180 min (rats; 150 mg/kg orally): 36.53 ± 0.06; body temperature, t = 270 min (rats; 150 mg/kg orally): 36.55 ± 0.05
9 | O=C(O)Cc1cn(-c2ccccc2)nc1-c1ccc(Cl)cc1 [Lonazolac, lonazolac, reference compound] | 1 to 2 | 0.1 | – | 1000 | 100 (≈ 320 µM) | – | – | – | – | – | – | – | – | – | – | –
10 | CC(=O)O.CCN(CC)CCOC(=O)C1CCc2cc(C3CCCCC3)c(Cl)cc21 (centres unmarked) [diethylaminoethyl 6-chloro-5-cyclohexyl-2,3-dihydro-1H-indene-1-carboxylate.AcOH] | – | – | – | – | – | 2000 | 50 | 57 | 15.2 | 37.25 ± 0.06 | 36.63 ± 0.06 | 36.55 ± 0.08 | 36.51 ± 0.07 | 4000 | 200 | –
11 | CC(=O)O.CCN(CC)CCOC(=O)CC1=C(C)/C(=C/c2ccc([S+](C)[O-])cc2)c2ccc(F)cc21 (centres unmarked) [diethylaminoethyl (Z)-5-fluoro-2-methyl-1-[(4-methylsulfinyl)phenylmethylene]-1H-indene-3-acetate.AcOH] | – | – | – | – | – | 20 | 50 | 59 | 14.2 | 37.28 ± 0.06 | 36.65 ± 0.05 | 36.62 ± 0.08 | 36.58 ± 0.07 | 900 | 500 | –
12 | CC(=O)O.CCN(CC)CCOC(=O)C(Cl)c1ccc(C2CCCCC2)c(Cl)c1 (stereo not drawn) [diethylaminoethyl α,3-dichloro-4-cyclohexylbenzeneacetate.AcOH] | – | – | – | – | – | 2000 | 50 | 57 | 15.2 | 37.25 ± 0.06 | 36.75 ± 0.05 | 36.62 ± 0.08 | 36.58 ± 0.07 | 3800 | 600 | –
13 | CC(=O)O.CCN(CC)CCOC(=O)C(C)c1ccc(C(=O)c2cccs2)cc1 (stereo not drawn) [diethylaminoethyl α-methyl-4-(2-thienylcarbonyl)benzeneacetate.AcOH] | – | – | – | – | – | 2000 | 50 | 55 | 15.7 | 37.28 ± 0.06 | 36.65 ± 0.06 | 36.58 ± 0.08 | 36.45 ± 0.07 | 3000 | 800 | –
14 | C=C(C)CNc1ccc(C(C)C(=O)OCCN(CC)CC)cc1.CC(=O)O (stereo not drawn) [diethylaminoethyl α-methyl-4-[(2-methyl-2-propenyl)amino]benzeneacetate.AcOH] | – | – | – | – | – | 2000 | 50 | 55 | 15.6 | 37.23 ± 0.06 | 36.69 ± 0.06 | 36.52 ± 0.08 | 36.40 ± 0.07 | 3500 | 1100 | –
15 | CC(=O)O.CCN(CC)CCOC(=O)C(C)c1ccc2c(c1)Cc1cccnc1O2 (stereo not drawn) [diethylaminoethyl α-methyl-5H-[1]benzopyrano[2,3-b]pyridine-7-acetate.AcOH] | – | – | – | – | – | 2000 | 50 | 54 | 16.1 | 37.27 ± 0.06 | 36.76 ± 0.05 | 36.65 ± 0.08 | 36.49 ± 0.07 | 3800 | – | LD50 of HPP (rat; rat, in vivo): 750 mg/kg
16 | CC(=O)O.CN(C)CCOC(=O)Cc1ccccc1Nc1c(Cl)cccc1Cl [dimethylaminoethyl 2[(2,6-dichlorophenyl)amino] benzene acetate.AcOH] | – | – | – | – | – | – | – | – | – | – | – | – | – | – | – | LD50 of HPP (rat; rat, in vivo): 700 mg/kg; Solubility in water ([2]; product as prepared in Example 1): 410000 µg/mL
